Assay results taken from US7696208B2, “Therapeutic agents useful for treating pain” (Purdue Pharma L.P., priority 2003, dated 2010).

How the values were obtained:
human VR1 [1] = target: T1, human VR1 (Homo sapiens, UniProt Q8NER1); assay: pH-based assay (FLIPR calcium influx, inducible HEK293-EcR cells expressing human VR1); format: cell-based; conditions: agonist buffer giving pH 5.5, HEK293-EcR cells induced with 5 μM PonA, Fluo-4, FLIPR, n=5
T1 construct: expressed in transfected cells; host or cells: HEK293-EcR cells, expression induced with ponasterone A
T1 sequence (Q8NER1 whole entry): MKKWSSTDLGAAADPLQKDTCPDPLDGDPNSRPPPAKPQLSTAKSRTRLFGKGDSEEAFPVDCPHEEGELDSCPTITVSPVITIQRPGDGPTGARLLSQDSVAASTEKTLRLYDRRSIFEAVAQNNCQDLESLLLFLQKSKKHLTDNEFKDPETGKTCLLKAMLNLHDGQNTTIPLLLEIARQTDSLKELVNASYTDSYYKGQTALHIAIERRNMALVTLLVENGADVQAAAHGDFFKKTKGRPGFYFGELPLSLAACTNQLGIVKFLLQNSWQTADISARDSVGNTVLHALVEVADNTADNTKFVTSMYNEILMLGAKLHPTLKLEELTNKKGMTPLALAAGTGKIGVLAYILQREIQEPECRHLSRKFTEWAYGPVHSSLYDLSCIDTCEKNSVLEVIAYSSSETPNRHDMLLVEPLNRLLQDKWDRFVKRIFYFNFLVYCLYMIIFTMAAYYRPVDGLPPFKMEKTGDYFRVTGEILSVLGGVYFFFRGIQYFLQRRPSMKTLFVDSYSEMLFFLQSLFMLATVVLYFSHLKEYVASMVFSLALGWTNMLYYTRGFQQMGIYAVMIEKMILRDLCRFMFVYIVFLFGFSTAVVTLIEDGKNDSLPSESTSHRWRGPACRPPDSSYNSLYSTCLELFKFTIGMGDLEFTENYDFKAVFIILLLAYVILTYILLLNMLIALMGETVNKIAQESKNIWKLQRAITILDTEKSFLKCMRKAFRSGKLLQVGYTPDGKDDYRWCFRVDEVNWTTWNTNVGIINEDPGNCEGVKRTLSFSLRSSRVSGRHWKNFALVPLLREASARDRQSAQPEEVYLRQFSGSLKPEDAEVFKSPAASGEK
Method: (§1) Human VR1 Cloning: Human spinal cord RNA (commercially available from Clontech, Palo Alto, Calif.) was used. Reverse transcription was conducted on 1.0 μg total RNA using Thermoscript Reverse Transcriptase (commercially available from Invitrogen, Carlsbad, Calif.) and oligo dT primers as detailed in its product description. Reverse transcription reactions were incubated at 55° C. for 1 h, heat-inactivated at 85° C. for 5 min, and RNase H-treated at 37° C. for 20 min.
(§2) Human VR1 cDNA sequence was obtained by comparison of the human genomic sequence, prior to annotation, to the published rat sequence. Intron sequences were removed and flanking exonic sequences were joined to generate the hypothetical human cDNA. Primers flanking the coding region of human VR1 were designed as follows: forward primer, […]; and reverse primer, […]. […]
(§3) Generation of Inducible Cell Lines: Unless noted otherwise, cell culture reagents were purchased from Life Technologies of Rockville, Md. […] On the day of assay, cells were loaded with Fluo-4 (a calcium-sensitive dye that is commercially available from Molecular Probes, Eugene, Oreg.) and CAP-mediated calcium influx was measured using a FLIPR as described below. […]

human VR1 [2] = target: T1, human VR1; assay: Capsaicin-based assay (FLIPR calcium influx, inducible HEK293-EcR cells expressing human VR1); format: cell-based; conditions: activation by 50 μL of capsaicin (400 nM), HEK293-EcR cells induced with 5 μM PonA, Fluo-4, FLIPR, n=3
Method: as §1, §2, §3

An IC50 (human VR1 [1]) of 808 ± 254 nM and an IC50 (human VR1 [2]) of 382 ± 64.2 nM were found for `O=C(NCCc1ccccc1)N1CCN(c2ncccc2C(F)(F)F)CC1` [Compound A19] in this work.
